# Literature values in patent US20120141398A1, “HAIR DYE CONTAINING ONE OR MORE EDIBLE OR COSMETIC COLORS” (priority 2010, published 2012).
# Experiments:
# large rat = settings: text b11, species not given
SMILES,Ames Test (mutagenicity) (Salmonella typhimurium),further results
Oc1cccc(O)c1 [Resorcinol],,"median lethal dose (small rat; rat, in vivo): 200 mg/kg"
"CCc1ccc(N)cc1N [2,4-diamino-ethylbenzene]",+,
Nc1ccc(OCCO)cc1[N+](=O)[O-] [4-amino-3-nitro-phenoxyethanol],+,
Nc1ccc(N)cc1 [p-phenylenediamine],+,median lethal dose (large rat): 80 mg/kg
Nc1cccc(N)c1 [m-phenylenediamine],+,
Nc1ccccc1N [o-phenylenediamine],+,
Nc1cc([N+](=O)[O-])ccc1O [2-amino-4-nitrophenolate],+,
"COc1ccc(N)cc1N [2,4 diaminoanisole]",+,
Nc1ccccc1O [2-Aminophenol],,Median Lethal Dose/Kg (small rat; small rat): 800 g (small rat) g/Kg
